Test results as given in ChEMBL document CHEMBL1156316, “Sterol effect on interaction between amphidinol 3 and liposomal membrane as evidenced by surface plasmon resonance” (Bioorg Med Chem Lett, 2010).

What was measured:
Lipid bilayer [1] = assay: Binding affinity to synthetic palmitoyl-oleoyl-phosphatidylcholine liposome at 10 uM by surface plasmon resonance assay
Lipid bilayer [2] = assay: Binding affinity to synthetic palmitoyl-oleoyl-phosphatidylcholine liposome at 10 uM by surface plasmon resonance assay in presence of 5% cholesterol
Lipid bilayer [3] = assay: Binding affinity to synthetic palmitoyl-oleoyl-phosphatidylcholine liposome at 10 uM by surface plasmon resonance assay in presence of 5% ergosterol
Lipid bilayer [4] = assay: Binding affinity to synthetic palmitoyl-oleoyl-phosphatidylcholine liposome assessed as association constant for compound- PPC liposome reorientation complex at 10 uM by surface plasmon resonance assay
Lipid bilayer [5] = assay: Binding affinity to synthetic palmitoyl-oleoyl-phosphatidylcholine liposome assessed as association constant for compound- PPC liposome reorientation complex at 10 uM by surface plasmon resonance assay in presence of 5% cholesterol
Lipid bilayer [6] = assay: Binding affinity to synthetic palmitoyl-oleoyl-phosphatidylcholine liposome assessed as association constant for compound- PPC liposome reorientation complex at 10 uM by surface plasmon resonance assay in presence of 5% ergosterol
Lipid bilayer [7] = assay: Binding affinity to synthetic palmitoyl-oleoyl-phosphatidylcholine liposome assessed as overall equilibrium association constant at 10 uM by surface plasmon resonance assay
Lipid bilayer [8] = assay: Binding affinity to synthetic palmitoyl-oleoyl-phosphatidylcholine liposome assessed as overall equilibrium association constant at 10 uM by surface plasmon resonance assay in presence of 5% cholesterol
Lipid bilayer [9] = assay: Binding affinity to synthetic palmitoyl-oleoyl-phosphatidylcholine liposome assessed as overall equilibrium association constant at 10 uM by surface plasmon resonance assay in presence of 5% ergosterol

With `C=C/C=C/CC/C=C/C=C/C=C/CC/C=C/[C@@H](O)[C@@H](O)C1O[C@@H]([C@H](O)[C@H](O)C(=C)CCC(O)[C@H]2C[C@@H](O)[C@@H](O)C([C@@H](O)[C@H](O)/C=C(\C)CC[C@H](O)C[C@H](O)[C@@H](O)[C@@H](C)C[C@H](O)[C@@H](O)CCCCCC(O)CCC[C@@H](O)/C=C/C[C@@H](O)/C=C/C[C@H](O)CO)O2)CC(O)C1O` (some centres undefined) the KA (Lipid bilayer [1]) was 0.901 10^3/M, the KA (Lipid bilayer [2]) was 180 10^3/M and the KA (Lipid bilayer [3]) was 143 10^3/M. The KA (Lipid bilayer [4]) was 0.93 10^3/M, the KA (Lipid bilayer [5]) was 3.92 10^3/M and the KA (Lipid bilayer [6]) was 28.6 10^3/M. The KA (Lipid bilayer [7]) was 0.764 10^3/M, the KA (Lipid bilayer [8]) was 721 10^3/M and the KA (Lipid bilayer [9]) was 3970 10^3/M.
